Legend:
[1] = system: P. falciparum asexual blood stages (PfABS), strain W2; assay type: cell-based, Plasmodium falciparum; conditions: for Selectivity Index: PfABS versus HepG2 cytotoxicity; for EC50: Plasmodium falciparum, W2, read-out: PfABS pEC50 (±S.D.) (converted)
[2] = Cytotoxicity against HepG2; assay type: cell-based, human; conditions: human, HepG2 cells
[3] = system: HepG2 human hepatocellular carcinoma cell line; experiment: Cytotoxicity against HepG2; assay type: cell-based; conditions: HepG2, 72 h; mean (±S.D.), n≥3; <5.00 = inactive at all concentrations tested

Compound | Selectivity Index [1] | EC50 [1] [nM] | CC50 at 72 h [2] [nM] | Cytotoxicity pCC50 (±S.D.) [3]
C[C@H]1[C@H](OC(=O)CCC(=O)O)O[C@@H]2O[C@@]3(C)CC[C@H]4[C@H](C)CC[C@@H]1[C@@]24OO3 [artesunate] | 3160 | 1.12 | 3550 | –
COc1ccc(C[C@H](N)C(=O)N[C@H]2[C@@H](O)[C@H](n3cnc4c(N(C)C)ncnc43)O[C@@H]2CO)cc1 [puromycin] | 8.71 | 46.8 | 407 | –
C[C@@H]1CC[C@H]2[C@@H](C)C(=O)O[C@@H]3O[C@@]4(C)CC[C@@H]1[C@]32OO4 [artemisinin] | > 2950 | 3.39 | > 10000 | –
CC1CCC2C(C)C(CCCO)OC3OC4(C)CCC1C32OO4 (centres unmarked) [Compound 6a] | > 891 | – | – | < 5.00 (0.00)
C[C@H]1[C@@H](O)O[C@@H]2O[C@@]3(C)CC[C@H]4[C@H](C)CC[C@@H]1[C@@]24OO3 [DHA, dihydroartemisinin] | > 9770 | 0.871 | > 8510 | –

Source: PMC9247344 (ACS infectious diseases, 2021)
